pEC50: −log10 of the molar value. Where two headings read alike, the source gives them in different places.
What was measured:
[1] = biological target: T1, MOR receptor (OPRM1) (Homo sapiens, UniProt P35372); assay: HTRF-cAMP cell experiment; conditions: for EC50: cAMP EC50 (nM); for EC50 / cAMP Emax (%) Morphine was 100% / pEC50: PathHunter CHO-K1 OPRM1 β-Arrestin cell line; for EC50 / pEC50: NKH477-stimulated cAMP, HTRF; for Emax: read-out: cAMP Emax (%) Morphine was 100%, PathHunter CHO-K1 OPRM1 β-Arrestin cell line; for Emax / cAMP Emax (%) Morphine was 100%: maximum effect relative to morphine = 100%; for pEC50: read-out: cAMP EC50
[2] = biological target: T1, MOR receptor (OPRM1); assay: β-Arrestin cell experiment; conditions: maximum effect relative to morphine = 100%; for Emax: read-out: β-arrestin Emax (%) Morphine was 100%, PathHunter CHO-K1 OPRM1 β-Arrestin cell line; for β-arrestin Emax (%) Morphine was 100%: PathHunter CHO-K1 OPRM1 β-Arrestin cell line

T1 sequence (P35372 whole entry): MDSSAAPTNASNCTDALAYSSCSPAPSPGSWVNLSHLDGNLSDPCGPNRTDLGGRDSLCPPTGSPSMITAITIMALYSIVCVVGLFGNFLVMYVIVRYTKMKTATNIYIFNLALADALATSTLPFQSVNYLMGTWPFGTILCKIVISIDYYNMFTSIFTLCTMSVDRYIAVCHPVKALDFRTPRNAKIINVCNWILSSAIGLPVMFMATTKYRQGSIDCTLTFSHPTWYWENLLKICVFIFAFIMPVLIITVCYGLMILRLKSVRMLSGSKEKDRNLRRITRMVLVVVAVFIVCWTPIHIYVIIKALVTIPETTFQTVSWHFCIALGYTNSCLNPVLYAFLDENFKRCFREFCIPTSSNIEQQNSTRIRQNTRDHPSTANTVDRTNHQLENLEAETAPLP

SMILES	EC50 [1]	Emax [1]	Emax [2]	cAMP Emax (%) Morphine was 100% [1]	pEC50 [1]	β-arrestin Emax (%) Morphine was 100% [2]
CCCC1CC(NCC[C@@]2(c3ccccn3)CCOC3(CCCC3)C2)c2ccnn21 (stereo partly drawn) [Compound H-14, 6-propyl-N-(2-((R)-9-(pyridin-2-yl)-6-oxaspiro[4.5]decan-9-yl)ethyl)-5,6-dihydro-4H-pyrrolo[1,2-b]pyrazol-4-amine]	31 nM	73%	7.2%	–	–	–
CC(C)C1CC(NCC[C@@]2(c3ccccn3)CCOC3(CCCC3)C2)c2c(F)cnn21 (stereo partly drawn) [Compound H-9, 3-fluoro-6-isopropyl-N-(2-((R)-9-(pyridin-2-yl)-6-oxaspiro[4.5]decan-9-yl)ethyl)-5,6-dihydro-4H-pyrrolo[1,2-b]pyrazol-4-amine]	–	–	1%	–	–	–
c1ccc([C@]2(CCNC3CC(C4CC4)n4nccc43)CCOC3(CCCC3)C2)nc1 (stereo partly drawn) [Compound H-3, 6-cyclopropyl-N-(2-((R)-9-(pyridin-2-yl)-6-oxaspiro[4.5]decan-9-yl)ethyl)-5,6-dihydro-4H-pyrrolo[1,2-b]pyrazol-4-amine]	17 nM	74.6%	4.9%	–	–	–
c1ccc([C@]2(CCNC3CC4(CCCC4)n4nccc43)CCOC3(CCCC3)C2)nc1 (stereo partly drawn) [Compound H-19, N-(2-((R)-9-(pyridin-2-yl)-6-oxaspiro[4.5]decan-9-yl)ethyl)-4′,5′-dihydrospiro[cyclopentane-1,6′-pyrrolo[1,2-b]pyrazol]-4′-amine]	21 nM	94.1%	17.3%	–	–	–
c1ccc([C@]2(CCNC3CC(C4CCCC4)n4nccc43)CCOC3(CCCC3)C2)nc1 (stereo partly drawn) [Compound H-5, 6-cyclopentyl-N-(2-((R)-9-(pyridin-2-yl)-6-oxaspiro[4.5]decan-9-yl)ethyl)-5,6-dihydro-4H-pyrrolo[1,2-b]pyrazol-4-amine]	–	–	4.8%	–	–	–
COC(C)(C)C1CC(NCC[C@@]2(c3ccccn3)CCOC3(CCCC3)C2)c2ccnn21 (stereo partly drawn) [Compound H-2, 6-(2-methoxypropan-2-yl)-N-(2-((R)-9-(pyridin-2-yl)-6-oxaspiro[4.5]decan-9-yl)ethyl)-5,6-dihydro-4H-pyrrolo[1,2-b]pyrazol-4-amine]	47 nM	93.2%	6.2%	–	–	–
CCC(C)C1CC(NCC[C@@]2(c3ccccn3)CCOC3(CCCC3)C2)c2ccnn21 (stereo partly drawn) [Compound H-15, 6-(sec-butyl)-N-(2-((R)-9-(pyridin-2-yl)-6-oxaspiro[4.5]decan-9-yl)ethyl)-5,6-dihydro-4H-pyrrolo[1,2-b]pyrazol-4-amine]	84 nM	64.9%	–	–	–	–
CC1(C2CC(NCC[C@@]3(c4ccccn4)CCOC4(CCCC4)C3)c3ccnn32)CC1 (stereo partly drawn) [Compound H-10, 6-(1-methylcyclopropyl)-N-(2-((R)-9-(pyridin-2-yl)-6-oxaspiro[4.5]decan-9-yl)ethyl)-5,6-dihydro-4H-pyrrolo[1,2-b]pyrazol-4-amine]	11 nM	74.7%	5.1%	–	–	–
c1ccc([C@]2(CCNC3CCn4nccc43)CCOC3(CCCC3)C2)nc1 (stereo partly drawn) [Compound H-1, N-(2-((R)-9-(pyridin-2-yl)-6-oxaspiro[4.5]decan-9-yl)ethyl)-5,6-dihydro-4H-pyrrolo[1,2-b]pyrazol-4-amine]	49 nM	125%	29.7%	–	–	–
CC(C)(C1CC(NCC[C@@]2(c3ccccn3)CCOC3(CCCC3)C2)c2ccnn21)C(F)(F)F (stereo partly drawn) [Compound H-18, N-(2-((R)-9-(pyridin-2-yl)-6-oxaspiro[4.5]decan-9-yl)ethyl)-6-(1,1,1,-trifluoro-2-methylprop-2-yl)-5,6-dihydro-4H-pyrrolo[1,2-b]pyrazol-4-amine]	–	–	–	89.1%	7.17	–
c1ccc([C@]2(CCNC3CC4(CCOCC4)n4nccc43)CCOC3(CCCC3)C2)nc1 (stereo partly drawn) [Compound H-20, N-(2-((R)-9-(pyridin-2-yl)-6-oxaspiro[4.5]decan-9-yl)ethyl)-2,3,4′,5,5′,6-hexahydrospiro[pyran-4,6′-pyrrolo[1,2-b]pyrazol]-4′-amine]	4 nM	107%	–	–	–	–
CCC1CC(NCC[C@@]2(c3ccccn3)CCOC3(CCCC3)C2)c2ccnn21 (mixture of isomers) [Compound H-4-2, 6-ethyl-N-(2-((R)-9-(pyridin-2-yl)-6-oxaspiro[4.5]decan-9-yl)ethyl)-5,6-dihydro-4H-pyrrolo[1,2-b]pyrazol-4-amine]	18 nM	–	–	91.8%	–	4.8%
CC1(C)CC(NCC[C@@]2(c3ccccn3)CCOC3(CCCC3)C2)c2ccnn21 (stereo partly drawn) [Compound H-22, 6,6-dimethyl-N-(2-((R)-9-(pyridin-2-yl)-6-oxaspiro[4.5]decan-9-yl)ethyl)-5,6-dihydro-4H-pyrrolo[1,2-b]pyrazol-4-amine]	11 nM	104%	39.9%	–	–	–
CC1CC(NCC[C@@]2(c3ccccn3)CCOC3(CCCC3)C2)c2ccnn21 (mixture of isomers) [Compound H-12-1, 6-methyl-N-(2-((R)-9-(pyridin-2-yl)-6-oxaspiro[4.5]decan-9-yl)ethyl)-5,6-dihydro-4H-pyrrolo[1,2-b]pyrazol-4-amine]	12 nM	–	12%	99.5%	–	–
CC(C)(C)C1CC(NCC[C@@]2(c3ccccn3)CCOC3(CCCC3)C2)c2ccnn21 (stereo partly drawn) [Compound H-6, 6-tert-butyl-N-(2-((R)-9-(pyridin-2-yl)-6-oxaspiro[4.5]decan-9-yl)ethyl)-5,6-dihydro-4H-pyrrolo[1,2-b]pyrazol-4-amine]	9 nM	99.6%	15.3%	–	–	–
CC(C)(F)C1CC(NCC[C@@]2(c3ccccn3)CCOC3(CCCC3)C2)c2ccnn21 (stereo partly drawn) [Compound H-7, 6-(2-fluoropropan-2-yl)-N-(2-((R)-9-(pyridin-2-yl)-6-oxaspiro[4.5]decan-9-yl)ethyl)-5,6-dihydro-4H-pyrrolo[1,2-b]pyrazol-4-amine]	29 nM	105%	22.1%	–	–	–
CCC1CC(NCC[C@@]2(c3ccccn3)CCOC3(CCCC3)C2)c2ccnn21 (mixture of isomers) [Compound H-4-1, 6-ethyl-N-(2-((R)-9-(pyridin-2-yl)-6-oxaspiro[4.5]decan-9-yl)ethyl)-5,6-dihydro-4H-pyrrolo[1,2-b]pyrazol-4-amine]	8 nM	–	–	64.1%	–	1.8%
FC(F)(F)C1(C2CC(NCC[C@@]3(c4ccccn4)CCOC4(CCCC4)C3)c3ccnn32)CC1 (stereo partly drawn) [Compound H-17, N-(2-((R)-9-(pyridin-2-yl)-6-oxaspiro[4.5]decan-9-yl)ethyl)-6-(1-(trifluoromethyl)cyclopropyl)-5,6-dihydro-4H-pyrrolo[1,2-b]pyrazol-4-amine]	31 nM	68.6%	2.6%	–	–	–
CC(C)C1CC(NCC[C@@]2(c3ccccn3)CCOC3(CCCC3)C2)c2ccnn21 (stereo partly drawn) [Compound H-11, 6-(isopropyl)-N-(2-((R)-9-(pyridin-2-yl)-6-oxaspiro[4.5]decan-9-yl)ethyl)-5,6-dihydro-4H-pyrrolo[1,2-b]pyrazol-4-amine]	15 nM	84.8%	4.3%	–	–	–
c1ccc([C@]2(CCNC3CC4(CCC4)n4nccc43)CCOC3(CCCC3)C2)nc1 (stereo partly drawn) [Compound H-21, N-(2-((R)-9-(pyridin-2-yl)-6-oxaspiro[4.5]decan-9-yl)ethyl)-4′,5′-dihydrospiro[cyclobutane-1,6′-pyrrolo[1,2-b]pyrazol]-4′-amine]	22 nM	70.8%	8%	–	–	–
CC1CC(NCC[C@@]2(c3ccccn3)CCOC3(CCCC3)C2)c2ccnn21 (mixture of isomers) [Compound H-12-2, 6-methyl-N-(2-((R)-9-(pyridin-2-yl)-6-oxaspiro[4.5]decan-9-yl)ethyl)-5,6-dihydro-4H-pyrrolo[1,2-b]pyrazol-4-amine]	–	–	–	77.8%	7.92	15.7%
